In patent publication US20150105252A1, “SUBSTITUTED PYRAZOLES AS HERBICIDES” (E I DU PONT DE NEMOURS AND COMPANY, priority 2013, published 2015):

Experiments:
bromegrass, downy = assay: Test D preemergence; assay type: in vivo, Bromus tectorum; details: for Plant response rating, Bromegrass, Downy: Preemergence, scale 0 to 100
Summary of the method: (§1)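 Formulation was a non-phytotoxic solvent mixture plus surfactant, applied either to soil at planting (silt loam, preemergence) or to foliage of 2–18 cm plants (postemergence). Visual evaluation versus controls followed at 14–21 days, scored 0–100.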

foxtail, green = assay: Test D preemergence; assay type: in vivo, Setaria viridis; details: for Plant response rating, Foxtail, Green: Preemergence, scale 0 to 100
Description: (§2) Seeds of plant species selected from bluegrass (annual bluegrass, Poa annua), blackgrass (Alopecurus myosuroides), canarygrass (littleseed canarygrass, Phalaris minor), chickweed (common chickweed, Stellaria media), galium (catchweed bedstraw, Galium aparine), bromegrass, downy (downy bromegrass, Bromus tectorum), field poppy (Papaver rhoeas), field violet (Viola arvensis), foxtail, green (green foxtail, Setaria viridis), deadnettle (henbit deadnettle, Lamium amplexicaule), ryegrass, Italian (Italian ryegrass, Lolium multiflorum), kochia (Kochia scoparia), lambsquarters (Chenopodium album), oilseed rape (Brassica napus), pigweed (redroot pigweed, Amaranthus retroflexus), chamomile (scentless chamomile, Matricaria inodora), speedwell (bird's-eye speedwell, Veronica persica), barley, spring (spring barley, Hordeum vulgare), wheat, spring (spring wheat, Triticum aestivum), buckwheat, wild (wild buckwheat, Polygonum convolvulus), mustard, wild (wild mustard, Sinapis arvensis), oat, wild (wild oat, Avena fatua), radish, wild (wild radish, Raphanus raphanistrum), windgrass (Apera spica-venti), Russian thistle (Salsola kali), barley, winter (winter barley, Hordeum vulgare), and wheat, winter (winter wheat, Triticum aestivum) were planted into a silt loam soil and treated preemergence with test chemicals formulated in a non-phytotoxic solvent mixture which included a surfactant.
(§3) At the same time, these species were planted in pots containing Redi-Earth® planting medium (Scotts Company, 14111 Scottslawn Road, Marysville, Ohio 43041) comprising spaghnum peat moss, vermiculite, wetting agent and starter nutrients and treated with postemergence applications of the test chemicals formulated in the same manner. Plants ranged in height from 2 to 18 cm (1- to 4-leaf stage). Treated plants and controls were maintained in a controlled growth environment for 14 to 21 days after which time all species were compared to controls and visually evaluated. Plant response ratings, summarized in Table D, are based on a scale of 0 to 100 where 0 is no effect and 100 is complete control. A dash (-) response means no test result.

deadnettle [1] = assay: Test D preemergence; assay type: in vivo, Lamium amplexicaule; details: for Plant response rating, Deadnettle: Preemergence, scale 0 to 100
Description: as §2, §3

lambsquarters = assay: Test D preemergence; assay type: in vivo, Chenopodium album; details: for Plant response rating, Lambsquarters: Preemergence, scale 0 to 100
Summary of the method: as §1

pigweed [2] = assay: Test D preemergence; assay type: in vivo, Amaranthus retroflexus; details: for Plant response rating, Pigweed: Preemergence, scale 0 to 100
Summary of the method: as §1

chamomile = assay: Test D preemergence; assay type: in vivo, Matricaria inodora; details: for Plant response rating, Chamomile: Preemergence, scale 0 to 100
Description: as §2, §3

barley, spring [3] = assay: Test D preemergence; assay type: in vivo, Hordeum vulgare; details: for Plant response rating, Barley, Spring: Preemergence, scale 0 to 100
Description: as §2, §3

barley, winter [4] = assay: Test D preemergence; assay type: in vivo, Hordeum vulgare; details: for Plant response rating, Barley, Winter: Preemergence, scale 0 to 100
Description: as §2, §3

wheat, spring = assay: Test D preemergence; assay type: in vivo, Triticum aestivum; details: for Plant response rating, Wheat, Spring: Preemergence, scale 0 to 100
Description: as §2, §3

wheat, winter = assay: Test D preemergence; assay type: in vivo, Triticum aestivum; details: for Plant response rating, Wheat, Winter: Preemergence, scale 0 to 100
Description: as §2, §3

radish, wild = assay: Test D preemergence; assay type: in vivo, Raphanus raphanistrum; details: for Plant response rating, Radish, Wild: Preemergence, scale 0 to 100
Description: as §2, §3

canarygrass = assay: Test D postemergence; assay type: in vivo, Phalaris minor; details: scale 0 to 100
Description: as §2, §3

field violet = assay: Test D postemergence; assay type: in vivo, Viola arvensis; details: scale 0 to 100
Description: as §2, §3

deadnettle [5] = assay: Test D postemergence; assay type: in vivo, Lamium amplexicaule; details: scale 0 to 100
Description: as §2, §3

pigweed [6] = assay: Test D postemergence; assay type: in vivo, Amaranthus retroflexus; details: scale 0 to 100
Summary of the method: as §1

barley, spring [7] = assay: Test D postemergence; assay type: in vivo, Hordeum vulgare; details: scale 0 to 100
Description: as §2, §3

barley, winter [8] = assay: Test D postemergence; assay type: in vivo, Hordeum vulgare; details: scale 0 to 100
Description: as §2, §3

buckwheat, wild = assay: Test D postemergence; assay type: in vivo, Polygonum convolvulus; details: scale 0 to 100
Description: as §2, §3

mustard, wild = assay: Test D postemergence; assay type: in vivo, Sinapis arvensis; details: scale 0 to 100
Summary of the method: as §1

oat, wild = assay: Test D postemergence; assay type: in vivo, Avena fatua; details: scale 0 to 100
Summary of the method: as §1

[9] = 16 g ai/ha, taken as preemergence

Cc1cc(C(=O)NCC(F)(F)F)nn1Cc1ccnc(C(F)(F)F)c1 [Compound 74]
Plant response rating (scale 0 to 100), Bromegrass, Downy (bromegrass, downy; [9]): 0
Plant response rating, Bromegrass, Downy (bromegrass, downy; 31 g ai/ha): 0
Plant response rating, Bromegrass, Downy (bromegrass, downy; 62 g ai/ha): 5
Plant response rating, Bromegrass, Downy (bromegrass, downy; 125 g ai/ha): 0
Plant response rating (scale 0 to 100), Foxtail, Green (foxtail, green; [9]): 0
Plant response rating, Foxtail, Green (foxtail, green; 31 g ai/ha): 5
Plant response rating, Foxtail, Green (foxtail, green; 62 g ai/ha): 10
Plant response rating, Foxtail, Green (foxtail, green; 125 g ai/ha): 30
Plant response rating (scale 0 to 100), Deadnettle (deadnettle [1]; [9]): 0
Plant response rating, Deadnettle (deadnettle [1]; 31 g ai/ha): 5
Plant response rating, Deadnettle (deadnettle [1]; 62 g ai/ha): 10
Plant response rating, Deadnettle (deadnettle [1]; 125 g ai/ha): 20
Plant response rating (scale 0 to 100), Lambsquarters (lambsquarters; [9]): 20
Plant response rating, Lambsquarters (lambsquarters; 31 g ai/ha): 50
Plant response rating, Lambsquarters (lambsquarters; 62 g ai/ha): 20
Plant response rating, Lambsquarters (lambsquarters; 125 g ai/ha): 85
Plant response rating (scale 0 to 100), Pigweed (pigweed [2]; [9]): 15
Plant response rating, Pigweed (pigweed [2]; 31 g ai/ha): 30
Plant response rating, Pigweed (pigweed [2]; 62 g ai/ha): 70
Plant response rating, Pigweed (pigweed [2]; 125 g ai/ha): 100
Plant response rating (scale 0 to 100), Chamomile (chamomile; [9]): 20
Plant response rating, Chamomile (chamomile; 31 g ai/ha): 60
Plant response rating, Chamomile (chamomile; 62 g ai/ha): 80
Plant response rating, Chamomile (chamomile; 125 g ai/ha): 90
Plant response rating (scale 0 to 100), Barley, Spring (barley, spring [3]; 16 g ai/ha, taken as preemergence, 0 = no effect, 100 = complete control): 0
Plant response rating, Barley, Spring (barley, spring [3]; 31 g ai/ha): 0
Plant response rating, Barley, Spring (barley, spring [3]; 62 g ai/ha): 0
Plant response rating, Barley, Spring (barley, spring [3]; 125 g ai/ha): 5
Plant response rating (scale 0 to 100), Barley, Winter (barley, winter [4]; [9]): 0
Plant response rating, Barley, Winter (barley, winter [4]; 31 g ai/ha): 0
Plant response rating, Barley, Winter (barley, winter [4]; 62 g ai/ha): 0
Plant response rating, Barley, Winter (barley, winter [4]; 125 g ai/ha): 0
Plant response rating (scale 0 to 100), Wheat, Spring (wheat, spring; [9]): 0
Plant response rating, Wheat, Spring (wheat, spring; 31 g ai/ha): 0
Plant response rating, Wheat, Spring (wheat, spring; 62 g ai/ha): 0
Plant response rating, Wheat, Spring (wheat, spring; 125 g ai/ha): 0
Plant response rating (scale 0 to 100), Wheat, Winter (wheat, winter; [9]): 0
Plant response rating, Wheat, Winter (wheat, winter; 31 g ai/ha): 0
Plant response rating, Wheat, Winter (wheat, winter; 62 g ai/ha): 0
Plant response rating, Wheat, Winter (wheat, winter; 125 g ai/ha): 5
Plant response rating (scale 0 to 100), Radish, Wild (radish, wild; [9]): 0
Plant response rating, Radish, Wild (radish, wild; 31 g ai/ha): 15
Plant response rating, Radish, Wild (radish, wild; 62 g ai/ha): 75
Plant response rating, Radish, Wild (radish, wild; 125 g ai/ha): 100
Plant response rating, Canarygrass (canarygrass; Postemergence, 16 g ai/ha): 0
Canarygrass plant response rating (canarygrass; Postemergence, 31 g ai/ha): 0
Canarygrass plant response rating (canarygrass; Postemergence, 125 g ai/ha): 0
Canarygrass plant response rating (canarygrass; postemergence, 62 g ai/ha): 0
Plant response rating, Field Violet (field violet; Postemergence, 16 g ai/ha): 25
Field Violet plant response rating (field violet; Postemergence, 31 g ai/ha): 30
Field Violet plant response rating (field violet; Postemergence, 125 g ai/ha): 50
Field Violet plant response rating (field violet; postemergence, 62 g ai/ha): 60
Plant response rating, Deadnettle (deadnettle [5]; Postemergence, 16 g ai/ha): 10
Deadnettle plant response rating (deadnettle [5]; Postemergence, 31 g ai/ha): 15
Deadnettle plant response rating (deadnettle [5]; Postemergence, 125 g ai/ha): 30
Deadnettle plant response rating (deadnettle [5]; postemergence, 62 g ai/ha): 20
Plant response rating, Pigweed (pigweed [6]; Postemergence, 16 g ai/ha): 65
Pigweed plant response rating (pigweed [6]; Postemergence, 31 g ai/ha): 50
Pigweed plant response rating (pigweed [6]; Postemergence, 125 g ai/ha): 65
Pigweed plant response rating (pigweed [6]; postemergence, 62 g ai/ha): 65
Barley, Spring plant response rating (barley, spring [7]; Postemergence, 16 g ai/ha): 0
Barley, Spring plant response rating (barley, spring [7]; Postemergence, 31 g ai/ha): 0
Barley, Spring plant response rating (barley, spring [7]; Postemergence, 125 g ai/ha): 0
Barley, Spring plant response rating (barley, spring [7]; postemergence, 62 g ai/ha): 0
Barley, Winter plant response rating (barley, winter [8]; Postemergence, 16 g ai/ha): 0
Barley, Winter plant response rating (barley, winter [8]; Postemergence, 31 g ai/ha): 0
Barley, Winter plant response rating (barley, winter [8]; Postemergence, 125 g ai/ha): 5
Barley, Winter plant response rating (barley, winter [8]; postemergence, 62 g ai/ha): 0
Plant response rating, Buckwheat, Wild (buckwheat, wild; Postemergence, 16 g ai/ha): 60
Buckwheat, Wild plant response rating (buckwheat, wild; Postemergence, 31 g ai/ha): 60
Buckwheat, Wild plant response rating (buckwheat, wild; Postemergence, 125 g ai/ha): 65
Buckwheat, Wild plant response rating (buckwheat, wild; postemergence, 62 g ai/ha): 45
Plant response rating, Mustard, Wild (mustard, wild; Postemergence, 16 g ai/ha): 20
Mustard, Wild plant response rating (mustard, wild; Postemergence, 31 g ai/ha): 30
Mustard, Wild plant response rating (mustard, wild; Postemergence, 125 g ai/ha): 55
Mustard, Wild plant response rating (mustard, wild; postemergence, 62 g ai/ha): 30
Plant response rating, Oat, Wild (oat, wild; Postemergence, 16 g ai/ha): 0
Oat, Wild plant response rating (oat, wild; Postemergence, 31 g ai/ha): 5
Oat, Wild plant response rating (oat, wild; Postemergence, 125 g ai/ha): 5
Oat, Wild plant response rating (oat, wild; postemergence, 62 g ai/ha): 5
